# Results reported in patent publication US20170037028A1 (BAYER PHARMA AKTIENGESELLSCHAFT, priority 2013, published 2017).
# pIC50: −log10 of the molar value.
# Molecular target: T1, GLUT1 (Homo sapiens, UniProt P11166)
# T1 sequence (P11166 1-492): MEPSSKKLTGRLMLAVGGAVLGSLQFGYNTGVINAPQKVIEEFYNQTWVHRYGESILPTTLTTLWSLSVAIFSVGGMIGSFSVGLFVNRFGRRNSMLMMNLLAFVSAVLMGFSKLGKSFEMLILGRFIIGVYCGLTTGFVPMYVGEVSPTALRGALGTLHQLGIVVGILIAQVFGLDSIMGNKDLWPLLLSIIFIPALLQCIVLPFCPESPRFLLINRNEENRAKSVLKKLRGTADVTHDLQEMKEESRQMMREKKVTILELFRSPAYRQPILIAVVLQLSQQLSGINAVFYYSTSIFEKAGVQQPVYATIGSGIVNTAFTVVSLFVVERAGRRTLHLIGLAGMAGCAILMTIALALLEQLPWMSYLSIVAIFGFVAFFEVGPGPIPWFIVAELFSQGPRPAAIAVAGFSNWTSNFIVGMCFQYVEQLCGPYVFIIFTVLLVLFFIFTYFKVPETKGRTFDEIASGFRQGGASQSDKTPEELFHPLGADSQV
# Assay: Indirect measurement of GLUT1 activity by quantification of intracellular ATP levels (glucose induced ATP increase)
# Format: cell-based
# Set-up: endogenous in cells; host or cells: DLD1 or CHO-K1
# Details: read-out: IC50 regarding glucose induced ATP increase (GLUT1 inhibition)
# Summary of the method: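 Intracellular ATP was measured by CellTiter-Glo luminescence as an indirect readout of transport: glucose-driven for GLUT1, fructose-driven for GLUT2. DLD1 or CHO-K1 cells were used alongside an oxidative phosphorylation inhibitor. Beforehand, cells were held overnight in glucose-free 1% FCS medium to deplete ATP.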
row,pIC50,SMILES
1,5.15,Cc1nn(Cc2ccc(C(=O)NCCN(C)C)cc2)c(C)c1NC(=O)c1cc(C(N)=O)nc2cc(F)ccc12 [Example 1422]
2,5.47,COc1cc(C(=O)Nc2c(C)nn(Cc3c(C)noc3C)c2C)c2ccccc2n1 [Example 1273]
3,7.80,CCc1noc(Cn2nc(C(F)(F)F)c(NC(=O)c3cc(C(N)=O)nc4cc(F)c(Cl)cc34)c2C)n1 [Example 1544]
4,4.95,Cc1ccc2nc(C)cc(C(=O)Nc3c(C)nn(Cc4ccccc4C(F)(F)F)c3C)c2c1 [Example 1298]
5,7.22,COCCCS(=O)(=O)N1CCC(Cn2nc(C)c(NC(=O)c3cc(C(N)=O)nc4ccccc34)c2C)CC1 [Example 1513]
6,8.68,Cc1cccc(Cn2nc(C)c(NC(=O)c3cc(C(N)=O)nc4cc(F)ccc34)c2C)c1 [Example 1474]
7,8.48,CCc1ccc(Cn2nc(C(F)(F)F)c(NC(=O)c3cc(C(N)=O)nc4cc(F)c(Cl)cc34)c2C)cc1 [Example 1415]
8,8.72,Cc1c(NC(=O)c2cc(C(N)=O)nc3ccc(Br)cc23)c(C(F)(F)F)nn1Cc1ccc(S(C)(=O)=O)cc1 [Example 1439]
9,6.49,Cc1nn(CCOc2ccc(C#N)cc2)c(C)c1NC(=O)c1cc(C(F)(F)F)nc2ccc(Br)cc12 [Example 1344]
10,8.08,Cc1ccc2c(C(=O)Nc3c(C(F)(F)F)nn(Cc4ccc(C#N)cc4)c3C)cc(C(N)=O)nc2c1 [Example 1610]
11,6.26,Cc1c(NC(=O)c2cc(C(N)=O)nc3cccc(F)c23)c(C(F)(F)F)nn1Cc1cccc(OC(F)(F)F)c1 [Example 1584]

# Continued, molecule first:
row,SMILES,pIC50
1,"Cc1nn(Cc2ccncc2)c(C)c1NC(=O)c1cc(C(F)(F)F)nc2ccc(Br)cc12 [Example 160, 6-bromo-N-[3,5-dimethyl-1-(pyridin-4-ylmethyl)-1H-pyrazol-4-yl]-2-(trifluoromethyl)quinoline-4-carboxamide]",7.84
2,COc1ccccc1Cn1nc(C)c(NC(=O)c2cc(C)nc3ccc(C)cc23)c1C [Example 1232],5.98
3,Cc1nn(Cc2ccc(C(=O)NCc3ccc(F)cc3)cc2)c(C)c1NC(=O)c1cc(C(F)(F)F)nc2ccc(Br)cc12 [Example 1119],7.19
4,COc1cc(C(=O)Nc2c(C)nn(Cc3ncccc3C)c2C)c2ccccc2n1 [Example 1248],5.78
5,CC(=O)NCCNC(=O)c1ccc(Cn2nc(C)c(NC(=O)c3cc(C(F)(F)F)nc4ccc(Br)cc34)c2C)cc1 [Example 1168],6.75
6,"Cc1c(NC(=O)c2cc(S(C)(=O)=O)nc3ccccc23)c(C(F)(F)F)nn1Cc1ccc(C#N)cc1 [Example 384, N-[1-(4-cyanobenzyl)-5-methyl-3-(trifluoromethyl)-1H-pyrazol-4-yl]-2-(methylsulfonyl)quinoline-4-carboxamide]",8.44
7,Cc1c(NC(=O)c2cc(C(F)(F)F)nc3ccc(Br)cc23)c(C(F)(F)F)nn1Cc1ccc(C(=O)N(C)C)cn1 [Example 1194],6.44
8,"Cc1nn(Cc2ccc(F)cc2)c(C)c1NC(=O)c1cc(C2CC2)nc2cc(Br)ccc12 [Example 100, 7-bromo-2-cyclopropyl-N-[1-(4-fluorobenzyl)-3,5-dimethyl-1H-pyrazol-4-yl]quinoline-4-carboxamide]",6.43
9,"Cc1nn(Cc2ccc(C#N)cn2)c(C)c1NC(=O)c1cc(C(N)=O)nc2ccc(Br)cc12 [Example 350, 6-bromo-N^4-{1-[(5-cyanopyridin-2-yl)methyl]-3,5-dimethyl-1H-pyrazol-4-yl}quinoline-2,4-dicarboxamide]",8.96
10,Cc1c(NC(=O)c2cc(C(F)(F)F)nc3ccc(Br)cc23)c(C(F)(F)F)nn1Cc1ccncc1C#N [Example 1105],7.32
11,"Cc1nn(Cc2ccc(F)c(Cl)c2)c(C)c1NC(=O)c1cc(C(F)(F)F)nc2cc(F)c(F)cc12 [Example 191, N-[1-(3-chloro-4-fluorobenzyl)-3,5-dimethyl-1H-pyrazol-4-yl]-6,7-difluoro-2-(trifluoromethyl)quinoline-4-carboxamide]",6.77
